These results are taken from patent publication US10988478B1, “Pyrazolo[1,5a]pyrimidine derivatives as IRAK4 modulators” (Genentech, Inc., priority 2015, dated 2021).

Each structure is given as a SMILES string.

Chain of human IRAK4 (Q9NWZ3 whole entry, the tested form may be a part): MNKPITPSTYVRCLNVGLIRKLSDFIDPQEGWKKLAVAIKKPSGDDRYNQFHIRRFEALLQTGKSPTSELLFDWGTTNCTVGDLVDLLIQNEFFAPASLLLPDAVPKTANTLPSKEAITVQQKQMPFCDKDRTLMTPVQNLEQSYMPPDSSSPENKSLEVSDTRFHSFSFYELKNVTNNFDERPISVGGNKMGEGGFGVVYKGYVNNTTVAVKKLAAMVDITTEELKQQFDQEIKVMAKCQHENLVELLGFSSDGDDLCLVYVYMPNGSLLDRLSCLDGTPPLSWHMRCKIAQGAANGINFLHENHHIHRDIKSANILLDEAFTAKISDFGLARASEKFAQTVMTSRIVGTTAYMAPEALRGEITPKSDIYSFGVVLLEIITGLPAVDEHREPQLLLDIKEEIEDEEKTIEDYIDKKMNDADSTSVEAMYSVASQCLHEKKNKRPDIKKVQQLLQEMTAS

The experiment concerns the target human IRAK4 (Homo sapiens (Human), UniProt Q9NWZ3). In words: IRAK4 kinase inhibition, Transcreener fluorescence polarization ADP assay. Type of experiment: biochemical. The conditions noted are these: recombinant full-length His6-IRAK4; 125 uM ATP; 90 min; Ki computed using ATP Km 642 uM. Here is the method:
Compounds were assayed for inhibition of human IRAK4 and IRAK1 catalytic activity using recombinant enzyme produced from insect cells. Full-length IRAK4 protein, carrying an N-terminal His6-Tag, was obtained from Life Technologies (Carlsbad, Calif., USA). The IRAK1 construct was produced internally and was comprised of IRAK1 residues Arg194 to Ser712, preceded by an NH2-terminal His6 tag and the coding sequence for glutathione-S-transferase.
On the technique in general: Fluorescence polarisation rises when a labelled molecule tumbles more slowly, as on binding a larger partner.
In general, Ki refers to a measure of affinity in units of concentration, obtained from inhibition or displacement. As to `CC(=O)N1CCC2(CC1)Cc1cc(NC(=O)c3cnn4cccnc34)c(N3CCN(CC(N)=O)CC3)cc1O2` [Example 374, N-(1′-Acetyl-6-(4-(2-amino-2-oxoethyl)piperazin-1-yl)-3H-spiro[benzofuran-2,4′-piperidin]-5-yl)pyrazolo[1,5-a]pyrimidine-3-carboxamide], the Ki amounted to 2 nM.

Take `O=C(CN1CCN(c2cc3c(cc2NC(=O)c2cnn4cccnc24)CC2(CCNCC2)O3)CC1)NC1CC1` [Example 375, N-(6-(4-(2-(Cyclopropylamino)-2-oxoethyl)piperazin-1-yl)-3H-spiro[benzofuran-2,4′-piperidin]-5-yl)pyrazolo[1,5-a]pyrimidine-3-carboxamide]: the Ki came out at 47 nM.

Take `CN1CCC2(CC1)Cc1cc(NC(=O)c3cnn4cccnc34)c(N3CCN(CC(=O)NC4CC4)CC3)cc1O2` [Example 376, N-(6-(4-(2-(Cyclopropylamino)-2-oxoethyl)piperazin-1-yl)-1′-methyl-3H-spiro[benzofuran-2,4′-piperidin]-5-yl)pyrazolo[1,5-a]pyrimidine-3-carboxamide]: the Ki came out at 46 nM.

For the compound `O=C(Nc1cc2c(cc1OCC(F)F)OC1(CCNCC1)C2)c1cnn2cccnc12` [Example 377, N-(6-(2,2-Difluoroethoxy)-3H-spiro[benzofuran-2,4′-piperidin]-5-yl)pyrazolo[1,5-a]pyrimidine-3-carboxamide], the Ki came to 11 nM.

Consider `CN1CCC2(CC1)Cc1cc(NC(=O)c3cnn4cccnc34)c(OCC(F)F)cc1O2` [Example 378, N-(6-(2,2-difluoroethoxy)-1′-methyl-3H-spiro[benzofuran-2,4′-piperidin]-5-yl)pyrazolo[1,5-a]pyrimidine-3-carboxamide], for which the Ki came to 7.3 nM.

Take `CNc1cnc2c(C(=O)Nc3cc4c(cc3N3CCN(CC(F)F)CC3)OC(C)(C)C4)cnn2c1` [Example 379, N-[6-[4-(2,2-difluoroethyl)piperazin-1-yl]-2,2-dimethyl-3H-benzofuran-5-yl]-6-(methylamino)pyrazolo[1,5-a]pyrimidine-3-carboxamide]: the Ki was determined as 5.1 nM.

As for `CNc1cnc2c(C(=O)Nc3cc4c(cc3N3CCOCC3)OC3(CCN(C)CC3)C4)cnn2c1` [Example 380, N-(1′-methyl-6-morpholino-3H-spiro[benzofuran-2,4′-piperidin]-5-yl)-6-(methylamino)pyrazolo[1,5-a]pyrimidine-3-carboxamide], the Ki stood at 8.1 nM.

In the case of `CNc1cnc2c(C(=O)Nc3cc4c(cc3N3CCN(CC(F)F)CC3)O[C@](C)(CO)C4)cnn2c1` [Example 381, (S)-N-(6-(4-(2,2-difluoroethyl)piperazin-1-yl)-2-(hydroxymethyl)-2-methyl-2,3-dihydrobenzofuran-5-yl)-6-(methylamino)pyrazolo[1,5-a]pyrimidine-3-carboxamide], the Ki came to 3 nM.

Take `CNc1cnc2c(C(=O)Nc3cc4c(cc3N3CCN(CC(F)F)CC3)O[C@@](C)(CO)C4)cnn2c1` [Example 382, (R)-N-(6-(4-(2,2-difluoroethyl)piperazin-1-yl)-2-(hydroxymethyl)-2-methyl-2,3-dihydrobenzofuran-5-yl)-6-(methylamino)pyrazolo[1,5-a]pyrimidine-3-carboxamide]: the inhibition constant Ki turned out to be 4 nM.

Take `CNc1cnc2c(C(=O)Nc3cc4c(cc3N3CCN(CC(F)F)CC3)OC3(CCOCC3)C4)cnn2c1` [Example 383, N-(6-(4-(2,2-difluoroethyl)piperazin-1-yl)-2′,3′,5′,6′-tetrahydro-3H-spiro[benzofuran-2,4′-pyran]-5-yl)-6-(methylamino)pyrazolo[1,5-a]pyrimidine-3-carboxamide]: the Ki stood at 7.6 nM.

In the case of `CC1(C)Cc2cc(NC(=O)c3cnn4cccnc34)c(C3CC3)cc2O1` [Example 384, N-(6-Cyclopropyl-2,2-dimethyl-3H-benzofuran-5-yl)pyrazolo[1,5-a]pyrimidine-3-carboxamide], the Ki worked out at 37 nM.

With `CN1Cc2cc(NC(=O)c3cnn4cccnc34)c(N3CCOCC3)cc2S1(=O)=O` [Example 385, N-(2-methyl-6-morpholino-1,1-dioxo-3H-1,2-benzothiazol-5-yl)pyrazolo[1,5-a]pyrimidine-3-carboxamide], the Ki is 19 nM.

Take `CC1(CC#N)Cc2cc(NC(=O)c3cnn4cccnc34)c(N3CCOCC3)cc2O1` (stereo not drawn) [Example 386, N-[2-(Cyanomethyl)-2-methyl-6-morpholino-3H-benzofuran-5-yl]pyrazolo[1,5-a]pyrimidine-3-carboxamide]: the Ki came out at 16 nM.

With `C[C@]1(CCO)Cc2cc(NC(=O)c3cnn4cccnc34)c(N3CCOCC3)cc2O1` [Example 388, (R)—N-(2-(2-hydroxyethyl)-2-methyl-6-morpholino-2,3-dihydrobenzofuran-5-yl)pyrazolo[1,5-a]pyrimidine-3-carboxamide], the inhibition constant (Ki) turned out to be 12 nM.

On to `CC1(C)Cc2cc(NC(=O)c3cnn4cccnc34)c(N3CCC(F)(CN)CC3)cc2O1` [Example 389, N-[6-[4-(Aminomethyl)-4-fluoro-1-piperidyl]-2,2-dimethyl-3H-benzofuran-5-yl]pyrazolo[1,5-a]pyrimidine-3-carboxamide], for which the inhibition constant (Ki) amounted to 1.3 nM.

Take `CN1CC[C@]2(Cc3cc(NC(=O)c4cnn5cccnc45)c(N4CCOCC4)cc3O2)C1` [Example 390, (R)—N-(1′-methyl-6-morpholino-3H-spiro[benzofuran-2,3′-pyrrolidin]-5-yl)pyrazolo[1,5-a]pyrimidine-3-carboxamide]: the Ki was found to be 16 nM.

With `CN1CC[C@@]2(Cc3cc(NC(=O)c4cnn5cccnc45)c(N4CCOCC4)cc3O2)C1` [Example 391, (S)—N-(1′-methyl-6-morpholino-3H-spiro[benzofuran-2,3′-pyrrolidin]-5-yl)pyrazolo[1,5-a]pyrimidine-3-carboxamide], the Ki was found to be 31 nM.

With `CC(C)(O)C(F)C1(C)Cc2cc(NC(=O)c3cnn4cccnc34)c(N3CCOCC3)cc2O1` (stereo not drawn) [Example 392, N-[2-(1-fluoro-2-hydroxy-2-methyl-propyl)-2-methyl-6-morpholino-3H-benzofuran-5-yl]pyrazolo[1,5-a]pyrimidine-3-carboxamide], the Ki was found to be 18 nM.

On to `O=C(Nc1cc2c(cc1N1CCOCC1)OC1(CCNC1)C2)c1cnn2cccnc12` (stereo not drawn) [Example 393, N-(6-Morpholinospiro[3H-benzofuran-2,3′-pyrrolidine]-5-yl)pyrazolo[1,5-a]pyrimidine-3-carboxamide], for which the Ki was found to be 24 nM.

In the case of `O=C(Nc1cc2c(cc1N1CCOCC1)OC(CO)(CO)C2)c1cnn2cccnc12` [Example 394, N-(2,2-bis(hydroxymethyl)-6-morpholino-2,3-dihydrobenzofuran-5-yl)pyrazolo[1,5-a]pyrimidine-3-carboxamide], the Ki was 75 nM.

Turning to `CNC(=O)C1CC1c1cc2c(cc1NC(=O)c1cnn3cccnc13)CC(C)(C)O2` (stereo not drawn) [Example 395, N-(2,2-dimethyl-6-(2-(methylcarbamoyl)cyclopropyl)-2,3-dihydrobenzofuran-5-yl)pyrazolo[1,5-a]pyrimidine-3-carboxamide], the Ki worked out at 340 nM.

As to `CC1(C)Cc2cc(NC(=O)c3cnn4cccnc34)c([C@@H]3C[C@H]3C(N)=O)cc2O1` [Example 396, N-(6-((1R,2R)-2-Carbamoylcyclopropyl)-2,2-dimethyl-2,3-dihydrobenzofuran-5-yl)pyrazolo[1,5-a]pyrimidine-3-carboxamide], the Ki amounted to 110 nM.

As for `CC1(C)Cc2cc(NC(=O)c3cnn4cccnc34)c([C@@H]3C[C@H]3CO)cc2O1` [Example 397, N-(6-((1R,2R)-2-(Hydroxymethyl)cyclopropyl)-2,2-dimethyl-2,3-dihydrobenzofuran-5-yl)pyrazolo[1,5-a]pyrimidine-3-carboxamide], the Ki was 88 nM.

Consider `CNc1cnc2c(C(=O)Nc3cc4c(cc3N3CCOCC3)C(=O)N(C(C)C)C4)cnn2c1` [Example 398, N-(2-Isopropyl-6-morpholino-1-oxoisoindolin-5-yl)-6-(methylamino)pyrazolo[1,5-a]-pyrimidine-3-carboxamide], for which the Ki came out at 7 nM.

For `O=C(Nc1cc2c(cc1N1CCOCC1)C(=O)N([C@H]1CCOC[C@@H]1F)C2)c1cnn2cccnc12` [Example 399, N-[2-[(3R,4S)-3-Fluorotetrahydropyran-4-yl]-6-morpholino-1-oxo-isoindolin-5-yl]pyrazolo[1,5-a]pyrimidine-3-carboxamide], the Ki was 5 nM.

On to `O=C(Nc1cc2c(cc1N1CCOCC1)C(=O)N([C@@H]1CCOC[C@H]1F)C2)c1cnn2cccnc12` [Example 400, N-[2-[(3S,4R)-3-fluorotetrahydropyran-4-yl]-6-morpholino-1-oxo-isoindolin-5-yl]pyrazolo[1,5-a]pyrimidine-3-carboxamide], for which the inhibitory constant (Ki) came to 1 nM.

On to `CN1CCc2cc(NC(=O)c3cnn4cccnc34)c(N3CCOCC3)cc2C1=O` [Example 401, N-(2-Methyl-7-morpholino-1-oxo-1,2,3,4-tetrahydroisoquinolin-6-yl)pyrazolo[1,5-a]pyrimidine-3-carboxamide], for which the Ki is 97 nM.

Regarding `O=C(Nc1cc2c(cc1N1CCOCC1)S(=O)(=O)CCN2)c1cnn2cccnc12` [Example 402, N-(7-Morpholino-1,1-dioxido-3,4-dihydro-2H-benzo[b][1,4]thiazin-6-yl)pyrazolo[1,5-a]pyrimidine-3-carboxamide], the Ki was found to be 19 nM.

As for `CC1(C)CS(=O)(=O)c2cc(N3CCOCC3)c(NC(=O)c3cnn4cccnc34)cc2N1` [Example 403, N-(3,3-Dimethyl-7-morpholino-1,1-dioxido-3,4-dihydro-2H-benzo[b][1,4]thiazin-6-yl)pyrazolo[1,5-a]pyrimidine-3-carboxamide], the Ki amounted to 680 nM.

For the compound `Cn1cc(-c2cc3c(cc2NC(=O)c2cnn4cccnc24)CC(C)(C)O3)cn1` [Example 404, N-(2,2-Dimethyl-6-(1-methyl-1H-pyrazol-4-yl)-2,3-dihydrobenzofuran-5-yl)pyrazolo[1,5-a]pyrimidine-3-carboxamide], the Ki was found to be 64 nM.
